These are literature values, as cited in patent US20050188697A1, “Fluorinated ketone and fluorinated ethers as working fluids for thermal energy conversion” (HONEYWELL CORPORATION, priority 2004, published 2005).

For data set [1] the following is noted: at 1 atmosphere.
For data set [2] the following is noted: for Critical Temperature, Tc: Table 4 input.

For the compound `FC(F)(F)C(Cl)Cl` [HCFC-123, 1,1-dichloro-2,2,2-trifluoroethane, reference compound], the “Flame Limits” value in data set [1] is recorded as “None”. In data set [2], the “Critical Temperature, Tc” value is 183.6 °C and the “Heat Capacity (liquid, 25° C.)” value is on record as 160.3 J/g-mol K. The “temperature at which toxic HCFC-133a is formed” value (thermal decomposition) was “below 300 ° F”. Moreover, the “maximum temperature (thermal limitation)” value (to avoid formation of toxic HCFC-133a via thermal decomposition) was 121.0 °C.

Turning to `FC(F)CC(F)(F)F` [HFC-245fa, 1,1,1,3,3-pentafluoropropane, reference compound], in data set [1], the “Flame Limits” value is “None”. In data set [2], the “Critical Temperature, Tc” value is 151.1 °C and the “Heat Capacity (liquid, 25° C.)” value is given as 185.5 J/g-mol K.

Consider `COC(F)(F)C(F)(F)C(F)(F)C(F)(F)F` [Methyl (perfluorobutyl) ether, 1-methoxynonafluorobutane], for which the “Flame Limits” value in data set [1] is on record as “None”. In addition, in data set [2], the “Critical Temperature, Tc” value was 195.3 °C and the “Heat Capacity (liquid, 25° C.)” value is reported as 293.8 J/g-mol K.

Turning to `COC(F)(F)C(F)(F)C(F)(F)F` [Methyl (perfluoropropyl) ether, 1-methoxyheptafluoropropane], the “Flame Limits” value in data set [1] is “None”. In addition, in data set [2], the “Critical Temperature, Tc” value is 165.0 °C and the “Heat Capacity (liquid, 25° C.)” value was 260.0 J/g-mol K.

As for `O=C(C(F)(F)C(F)(F)F)C(F)(C(F)(F)F)C(F)(F)F` [Perfluoroethyl perfluoroisopropyl ketone, dodecafluoro-2-methylpentan-3-one], the “Flame Limits” value in data set [1] is on record as “None”. Also, in data set [2], the “Critical Temperature, Tc” value was 168.7 °C and the “Heat Capacity (liquid, 25° C.)” value is 348.5 J/g-mol K.
